Assays:
Format in all cases: in vivo
Trich. colubriformis = test: Total worm count, resistant strains in sheep (Example 3); conditions: for % efficacy (arithmetic mean): doses as the 6th table, Day 15
Protocol: (§1) Sheep were artificially infected with infective L3 larvae in a mixed culture containing Haemonchus contortus, Teladorsagia spp and Trichostrongylus spp, and efficacy was measured by total worm counts in the treatment group compared to the control group following administration of treatment. The animals were treated as outlined below with the commercially available reference products included to confirm the resistance profile of the above parasites.
(§2) All study animals were necropsied on Day 15 after treatment. Abomasa and small intestines were collected for worm recovery and total worm count estimations.

Teladorsagia spp (total) = test: as above; conditions: for % efficacy (arithmetic mean): doses as the 6th table, Day 15, NEG = negative efficacy
Protocol: as §1, §2

Haemonchus contortus = test: as above; conditions: for % efficacy (arithmetic mean): doses as the 6th table, Day 15
Protocol: as §1, §2

[1] = test system: Trichostrongylus colubriformis; test: Total worm count, resistant strains in sheep (Example 2); conditions: for % efficacy (arithmetic mean): doses as the 4th table, Day 15
Protocol: (§3) Sheep were artificially infected with L3 larvae of Teladorsagia (Ostertagia) circumcincta and Trichostrongylus colubriformis and efficacy was measured by total worm counts in the treatment group compared to the control group following administration of treatment.
as §2

[2] = test system: Teladorsagia circumcincta; test: as above; conditions: for % efficacy (arithmetic mean): doses as the 4th table, Day 15, NEG = negative efficacy, mean count higher than control
Protocol: as §3, §2

Teladorsagia trifurcata = test: as above; conditions: for % efficacy (arithmetic mean): doses as the 4th table, Day 15, NEG = negative efficacy, mean count higher than control
Protocol: as §3, §2

[3] = Example 3, resistant Trich. colubriformis
[4] = Example 3, resistant Teladorsagia spp (total)
[5] = Example 3, resistant Haemonchus contortus
[6] = Example 2, resistant Trichostrongylus colubriformis
[7] = Example 2, resistant Teladorsagia circumcincta
[8] = Example 2, Teladorsagia trifurcata
[9] = Example 3, resistant Trich. colubriformis, per os once Day 0 (2-DOPH 2 + abamectin 0.2; albendazole 3.8; levamisole 8; ivermectin 0.2 mg/kg), necropsy Day 15
[10] = Example 3, resistant Teladorsagia spp (total), per os once Day 0 (2-DOPH 2 + abamectin 0.2; albendazole 3.8; levamisole 8; ivermectin 0.2 mg/kg), necropsy Day 15
[11] = Example 3, resistant Haemonchus contortus, per os once Day 0 (2-DOPH 2 + abamectin 0.2; albendazole 3.8; levamisole 8; ivermectin 0.2 mg/kg), necropsy Day 15
[12] = Example 2, resistant Trichostrongylus colubriformis, per os once Day 0 (2-DOPH 2 + abamectin 0.2; albendazole 3.8; levamisole 8; ivermectin 0.2 mg/kg), necropsy Day 15
[13] = Example 2, resistant Teladorsagia circumcincta, per os once Day 0 (2-DOPH 2 + abamectin 0.2; albendazole 3.8; levamisole 8; ivermectin 0.2 mg/kg), necropsy Day 15
[14] = Example 2, Teladorsagia trifurcata, per os once Day 0 (2-DOPH 2 + abamectin 0.2; albendazole 3.8; levamisole 8; ivermectin 0.2 mg/kg), necropsy Day 15

Compound | % efficacy (arithmetic mean) (Trich. colubriformis; [3]) [%] | Arithmetic Mean (total worm count) (Trich. colubriformis; in vivo) | Prevalence (total worm count) (Trich. colubriformis; in vivo) | Range (total worm count) (Trich. colubriformis; in vivo) | % efficacy (arithmetic mean) (Teladorsagia spp (total); [4]) | Arithmetic Mean (total worm count) (Teladorsagia spp (total); in vivo) | Prevalence (total worm count) (Teladorsagia spp (total); in vivo) | Range (total worm count) (Teladorsagia spp (total); in vivo) | % efficacy (arithmetic mean) (Haemonchus contortus; [5]) [%] | Arithmetic Mean (total worm count) (Haemonchus contortus; in vivo) | Prevalence (total worm count) (Haemonchus contortus; in vivo) | Range (total worm count) (Haemonchus contortus; in vivo) | % efficacy (arithmetic mean) [1, 6] [%] | Arithmetic Mean (total worm count) ([1]; in vivo) | Prevalence (total worm count) ([1]; in vivo) | Range (total worm count) ([1]; in vivo) | % efficacy (arithmetic mean) [2, 7] | Arithmetic Mean (total worm count) ([2]; in vivo) | Prevalence (total worm count) ([2]; in vivo) | % efficacy (arithmetic mean) (Teladorsagia trifurcata; [8]) | also measured
CCCSc1ccc2nc(NC(=O)OC)[nH]c2c1 [Albendazole] | 25.00 | 3828.0 | 10/10 | 2600-5160 | 58.16% | 590.0 | 10/10 | 160-1200 | 80.57 | 164.0 | 8/10 | 0-320 | 56.44 | 1812.0 | 10/10 | 1320-2660 | NEG^ | 2184.4 | 10/10 | NEG^ | Range (total worm count) ([2]; in vivo): 80-3708; Arithmetic Mean (total worm count) (Teladorsagia trifurcata; in vivo): 281.6; Prevalence (total worm count) (Teladorsagia trifurcata; in vivo): 7/10; Range (total worm count) (Teladorsagia trifurcata; in vivo): 0-712
c1ccc([C@H]2CN3CCSC3=N2)cc1 [Levamisole] | 15.34 |  |  |  | 96.31% |  |  |  | 99.76 |  |  |  | 84.31 |  |  |  | 82.67% |  |  | 84.08% | Arithmetic Mean (total worm count) (Trich. colubriformis; [9]): 4320.7; Prevalence (total worm count) (Trich. colubriformis; [9]): 10/10; Range (total worm count) (Trich. colubriformis; [9]): 2120-5800; Arithmetic Mean (total worm count) (Teladorsagia spp (total); [10]): 52.0; Prevalence (total worm count) (Teladorsagia spp (total); [10]): 8/10; Range (total worm count) (Teladorsagia spp (total); [10]): 0-160; Arithmetic Mean (total worm count) (Haemonchus contortus; [11]): 2.0; Prevalence (total worm count) (Haemonchus contortus; [11]): 1/10; Range (total worm count) (Haemonchus contortus; [11]): 0-20; Arithmetic Mean (total worm count) [1, 12]: 652.6; Prevalence (total worm count) [1, 12]: 9/9; Range (total worm count) [1, 12]: 300-1500; Arithmetic Mean (total worm count) [2, 13]: 292.8; Prevalence (total worm count) [2, 13]: 7/9; Range (total worm count) [2, 13]: 0-1020; Arithmetic Mean (total worm count) (Teladorsagia trifurcata; [14]): 36.7; Prevalence (total worm count) (Teladorsagia trifurcata; [14]): 4/9; Range (total worm count) (Teladorsagia trifurcata; [14]): 0-180
Ivermectin | 11.63 | 4510.0 | 10/10 | 3140-5920 | NEG | 1680.0 | 10/10 | 280-3800 | 47.63 | 442.0 | 8/10 | 0-940 | 55.29 | 1860.0 | 10/10 | 400-4060 | NEG^ | 2093.2 | 10/10 | 15.49% | % efficacy (arithmetic mean) ([2]; Example 2, resistant Teladorsagia circumcincta, listed as ivermectin): zero; Range (total worm count) ([2]; in vivo): 680-3600; Arithmetic Mean (total worm count) (Teladorsagia trifurcata; in vivo): 194.8; Prevalence (total worm count) (Teladorsagia trifurcata; in vivo): 7/10; Range (total worm count) (Teladorsagia trifurcata; in vivo): 0-459

Source: patent publication US8440633B2, “Anthelmintic combination” (AH USA 42 LLC, priority 2007, dated 2013)
